Measurements reported in paper PMC11674800, “Second-Generation Antipsychotics Induce Metabolic Disruption in Adipose Tissue-Derived Mesenchymal Stem Cells Through an aPKC-Dependent Pathway” (Cells, 2024).
Numbered stars: 1 amine (or outer) side, 2 acyl side, 3 side chain; on linkers, the order of the positions; unused ones are H or OH. Bridge positions count the residues as written; N and C are the ends. Square brackets hold non-standard residues; d marks the D form. Peptide text beside a SMILES is read from it. X1 = CC(=O)NC(C(=O)OC(C(C)C)C(N[*:1])C(=O)[*:2])C(O)C(C)C; PhLac = O=C(O)[CH](O)Cc1ccccc1; NMeT = CN[CH](C(=O)O)[CH](C)O; NMeA = CN[CH](C)C(=O)O; NMeDha = C=C(NC)C(=O)O

Legend:
[1] = tested on: ADSCs; test: Acidic vesicle quantification (Lysotracker); type: cell-based, human; conditions: for effect of co-treatment on acidic vesicle accumulation in clozapine-treated cells: clozapine 5 µM; for effect of co-treatment on acidic vesicle accumulation in olanzapine-treated cells / reduction of olanzapine-induced accumulation of acidic vesicles: olanzapine 5 μM; for reduction of olanzapine-induced accumulation of acidic vesicles: plus inhibitor 10 μM
Description: After treatment, the medium was removed, and the cells were stained with 50 nM Lysotracker Deep Red (Invitrogen, Waltham, MA, USA) and 5 μg/mL Hoechst 33342 (Sigma). Staining was conducted in the dark at 37 °C for 30 min. Fluorescence signals were captured using a FLoid Cell Imaging Station (Life Technology, Carlsbad, CA, USA). The ratio of Lysotracker red signal to blue nuclear signal was quantified using ImageJ software. For acidic vesicle rescue experiments, ADSCs were plated at a concentration of 10,000 cells per well in 48-well plates.

[2] = tested on: 3T3L1 cells; test: PA accumulation in cells transfected with DOCK2-Pii; type: cell-based, mouse; conditions: olanzapine 5 μM, 16 h, plus inhibitor
Description: Transfection was carried out using Lipofectamine 3000 (Thermo Fisher Scientific, Waltham, MA, USA), following the manufacturer’s instructions. The cells were incubated with the plasmid for 24 h to ensure successful transfection and plasmid expression and were used for experiments 48 h post-transfection.

[3] = tested on: TFEB; test: TFEB nuclear localization (confocal microscopy); type: cell-based, human; conditions: olanzapine 5 μM plus inhibitor
Description: (§1) For INSRβ endocytosis experiments, the cells were stimulated with 50 ng/mL insulin for 15 min. For transferrin endocytosis experiments, the cells were incubated with 25 μg/mL Transferrin Texas Red for 5 min. After treatment, the cells were washed with PBS and fixed with 4% PFA for 10 min at room temperature, followed by an additional PBS wash. The cells were then permeabilized by incubating them with cold HEPES-Triton X-100 buffer for 5 min at 4 °C. After permeabilization, the cells were incubated with primary antibodies for 30 min, followed by incubation with Alexa Fluor 488- or 546-conjugated secondary antibodies (Invitrogen, Waltham, MA, USA) and phalloidin, labeled with either Alexa Fluor 546 or 633 (Invitrogen Waltham, MA, USA) for 30 min. After incubation, coverslips were mounted on glass slides using a mounting medium. Images were acquired using a confocal microscope (Leica TCS SP8, Wetzlar, Germany) and analyzed using ImageJ (v 1.52a) software in order to quantify and analyze the fluorescence signals.

[4] = tested on: PKCζ; test: PKC activation (Western blot, P-PKCζ T560 immunofluorescence); type: cell-based, human; conditions: 16 h
Description: (§2) After treatments, whole-cell lysates were prepared using RIPA lysis buffer supplemented with protease inhibitors (AEBSF, aprotinin, bestatin, E-64, EDTA, leupeptin, Sigma-Aldrich, Saint Louis, MO, USA) and orthovanadate (Sigma-Aldrich, Saint Louis, MO, USA). The proteins in the lysates were collected and quantified using the Pierce BCA protein assay kit (Thermo Fisher Scientific, Waltham, MA, USA). Subsequently, the proteins were denatured by heating at 95 °C for 5 min in the presence of 2% Sodium Dodecyl Sulfate (SDS, Sigma-Aldrich, Saint Louis, MO, USA), 150 mM dithiothreitol (DTT, Sigma-Aldrich, Saint Louis, MO, USA), and 0.01% bromophenol blue (Sigma-Aldrich, Saint Louis, MO, USA). The samples were then analyzed using SDS-PAGE (SDS-Polyacrylamide Gel Electrophoresis) and Western blotting (WB).
as §1

[5] = tested on: Gas receptors; design: method as in PMID 33152337; conditions: acts as a suramin analog; cited from earlier work
[6] = tested on: ADSCs; test: Vacuolization assay; type: cell-based, human; conditions: 5 μM, 4 h
Description: After 4 h, pictures were acquired using a phase contrast microscope (DMi1, Leica, Wetzlar, Germany).

[7] = tested on: LC3B; test: Autophagy induction (LC3B Western blot, LAMP1/LC3B colocalization); type: cell-based, human; conditions: 16 h treatment
Description: as §2, §1

[8] = tested on: ADSCs; conditions: 7 days; 1 to 50 μM
[9] = tested on: ADSCs; test: Phospholipidosis assay (LipidTox Green); conditions: 5 μM, 16 h
Description: The cells were stained with 1X LipidTox Green (Thermo Fisher Scientific, Waltham, MA, USA) for 16 h to visualize lipid content. […] The cells were then washed with PBS and fixed with 4% paraformaldehyde for 15 min in the dark.

Cn1cnc(N)c2ncnc1-2 [3-MA, 3-methyladenine]
effect of co-treatment on acidic vesicle accumulation in clozapine-treated cells ([1]; 16 h, plus inhibitor): significantly reduced | effect of co-treatment on acidic vesicle accumulation in olanzapine-treated cells ([1]; 16 h, plus inhibitor): not seen

CC1CCc2c(cc(Br)c(F)c2Br)N1C=O (centres unmarked) [CE3F4]
reduction of olanzapine-induced accumulation of acidic vesicles ([1]; 16 h): at least 50% | effect of co-treatment on PA levels in olanzapine-treated cells [2]: markedly reduced

C[C@@H]1C[C@@H]([C@H](O)CC2CC(=O)NC(=O)C2)C(=O)[C@@H](C)C1 [CHX, cycloheximide]
effect of co-treatment on acidic vesicle accumulation (Lysotracker) in both olanzapine- and clozapine-treated cells ([1]; SGAs 5 µM, 16 h, plus inhibitor): significant reduction

O=C(NCCN1CCC(n2c(=O)[nH]c3ccccc32)CC1)c1cc2cc(F)ccc2[nH]1 [FIPI]
effect of co-treatment on acidic vesicle accumulation in olanzapine-treated cells ([1]; 16 h, plus inhibitor): significantly reduced | effect of co-treatment on PA levels in olanzapine-treated cells [2]: significantly reduced

CN(C)CCCn1cc(C2=C(c3c[nH]c4ccccc34)C(=O)NC2=O)c2ccccc21 [Go6850]
effect of co-treatment on acidic vesicle accumulation in clozapine-treated cells ([1]; 16 h, plus inhibitor): only partially reduced

CN1CCN(C(=O)C2C(C(=O)O)[C@H]3CC[C@@H]2O3)CC1 (some centres unmarked) [LB100]
effect of co-treatment on acidic vesicle accumulation in olanzapine-treated cells ([1]; 16 h, plus inhibitor): significant reduction | effect of co-treatment on TFEB nuclear localization induced by olanzapine [3]: complete abrogation

Cc1nc2sccn2c(=O)c1CCN1CCC(=C(c2ccccc2)c2ccc(F)cc2)CC1 [R59022]
effect of co-treatment on acidic vesicle accumulation in olanzapine-treated cells ([1]; 16 h, plus inhibitor): did not affect | effect of co-treatment on PA levels in olanzapine-treated cells [2]: did not affect

Nc1ncnc2c1ncn2C1CCCO1 (centres unmarked) [SQ22]
reduction of olanzapine-induced accumulation of acidic vesicles ([1]; 16 h): at least 50%

C=C1C(=O)NC(C)C(=O)N(C)C(C)C(=O)NC(C(OC(=O)C(NC(C)=O)C(O)C(C)C)C(C)C)C(=O)N(C)C(C(C)OC)C(=O)OC(C)C(NC(C)=O)C(=O)OC(Cc2ccccc2)C(=O)N1C (centres unmarked) [YM254890] (Ac-T[PhLac][NMeDha]A[NMeA][X1][NMeT](Me); ester 1-C; configuration not given here)
effect of co-treatment on acidic vesicle accumulation in olanzapine-treated cells ([1]; 16 h, plus inhibitor): strongest effect | reduction of olanzapine-induced accumulation of acidic vesicles ([1]; 16 h): at least 50% | PKCζ phosphorylation in olanzapine-treated cells, co-treatment ([4]; olanzapine 5 μM, plus inhibitor): diminished | effect of co-treatment on PA levels in olanzapine-treated cells [2]: markedly reduced | concentrations blocking Gas receptors [5]: below 10 μM

CN1CCN(C2=Nc3cc(Cl)ccc3Nc3ccccc32)CC1 [clozapine]
acidic compartment accumulation (Lysotracker staining) ([1]; 0.5-10 µM, 24 h, 72 h, 7 days): progressive time- and dose-dependent increase | concentrations at which acidic compartment accumulation was observed ([1]; ADSCs): below 1 µM | vacuolization induction [6]: absent | colocalization of LAMP1 with LC3B [7]: increased colocalization | conversion of LC3B-I to LC3B-II [7]: significantly increased | canonical PKCs (cPKCs) and atypical PKCζ activation state ([4]; 5 μM, Western blot): activation | concentrations showing significant toxicity [8]: above 25 μM

CC(C)(C)c1ccc(C(=O)CCCN2CCC(OC(c3ccccc3)c3ccccc3)CC2)cc1 [ebastine]
vacuolization induction [6]: prominently observed

CNCCC(Oc1ccc(C(F)(F)F)cc1)c1ccccc1 (centres unmarked) [fluoxetine]
vacuolization induction [6]: prominently observed | phospholipidosis induction [9]: prominently observed

Cc1ccc(C(=O)Nc2ccc(S(=O)(=O)O)c3cc(S(=O)(=O)O)cc(S(=O)(=O)O)c23)cc1NC(=O)c1cccc(NC(=O)Nc2cccc(C(=O)Nc3cc(C(=O)Nc4ccc(S(=O)(=O)O)c5cc(S(=O)(=O)O)cc(S(=O)(=O)O)c45)ccc3C)c2)c1 [suramin]
reduction of olanzapine-induced accumulation of acidic vesicles ([1]; 16 h): at least 50%
